What was measured:
Norovirus = assay: Suspension testing: Norovirus-positive stool in suspension, test agent, PBST neutralization, IMS bead capture, qRT-PCR; parameters: species or system human; conditions: for antiviral activity against Norovirus (in words): nanosilver at any concentration tested, alcohol up to 70%; for Log Reduction: Suspension
Human Norovirus = assay: Hard surface testing: Norovirus-positive stool dried on surface, test agent, PBST neutralization, IMS bead capture, qRT-PCR
Experimental: For this method, a Norovirus-positive human stool sample was allowed to dry on the surface of a material. A sterilized surface material (e.g., stainless steel, ceramic, porcelain, or fabric, etc.), in this case a round stainless steel plate, was placed into the center of a sterile deep Petri dish. 20 μl of Norovirus-positive human stool sample was added to the center of the stainless steel plate. The stool sample was dried onto the surface of the material for 30 minutes at room temperature.
100 μl of a test agent (e.g., a chemical disinfectant) was added on top of the dried stool sample. 100 μl of a neutral buffer, phosphate buffered saline-TWEEN® 20 (polysorbate) (PBST), was used as a negative control (in place of the test agent). 100 μl of 20% household bleach, (10500 ppm sodium hypochlorite, prepared fresh) was used as a positive control (in place of the test agent). The sample and the test agent, neutral buffer, and either 20% household bleach or 10500 ppm sodium hypochlorite were incubated at room temperature for as short as one minute to as long as 60 minutes.
40 ml of PBST was added over the surface to fully submerge the surface material and to dislodge the entire dried stool sample. 40 ml PBST acts as a neutralizer for the test compound by dilution. If necessary, the dried stool sample was scraped with the end of a sterile pipette tip. The mixture was shaken for 15 minutes (at ˜150 rpm) in an orbital shaker at room temperature.
The supernatant is transferred to a 50 ml screw cap centrifuge tube (or similar container). 10-100 μl of Norovirus specific antibody conjugated IMS beads were added, and the resulting mixture was incubated for 1-2 hours with end over rotation (5-10 RPM). The Norovirus specific antibody was monoclonal antibody P2B2 (Kim Laboratories, Inc., Rantoul, Ill.). A tube was placed in a magnetic stand for 15 minutes to capture the IMS beads. The supernatant was removed, with care being taken not to dislodge the IMS beads. […]

Compound: O=C(O)CC(O)(CC(=O)O)C(=O)O [Citric Acid Solution, Citric Acid]
- antiviral activity against Norovirus (in words) (Norovirus; Suspension testing): ineffective
- Log Reduction (Norovirus; 0.6%): 1.26 log

Compound: CCO [Ethanol solution, Ethanol]
- Log Reduction (Norovirus; 70%): 1.3 log

Compound: OCl [Sodium Hypochlorite]
- Norovirus disinfection (in words) (Norovirus; Suspension testing, bleach dilution more than 2-3 weeks old, data not shown): not effective
- antiviral activity against Norovirus (in words) (Norovirus; Suspension testing): showed antiviral activity
- Log Reduction (Norovirus; 20% of household bleach by Clorox brand): >5 log
- Log Reduction (Human Norovirus; Hard surface (porcelain tile), 20% of household bleach by Clorox brand): >5 log
- Norovirus disinfection (in words) (Human Norovirus; Hard surface testing, bleach dilution more than 2-3 weeks old): not effective
- antiviral activity against Human Norovirus (in words) (Human Norovirus; Hard surface testing, nanosilver at any concentration tested): showed antiviral activity

Compound: CCO [alcohol]
- antiviral activity against Norovirus (in words) (Norovirus; Suspension testing): ineffective

Compound: OO [hydrogen peroxide]
- antiviral activity against Norovirus (in words) (Norovirus; Suspension testing): ineffective

Compound: CC(O)C(=O)O (centres unmarked) [lactic acid]
- antiviral activity against Norovirus (in words) (Norovirus; Suspension testing): ineffective

Compound: O=S(=O)([O-])O[O-].[K+].[K+] [potassium peroxymonosulfate]
- antiviral activity against Norovirus (in words) (Norovirus; Suspension testing): ineffective

Compound: Povidone Iodine
- Log Reduction (Norovirus; 5%): 1.1 log

From patent US20110104300A1, “Methods for Screening Chemical, Biological, and Physical Agents for Disinfecting Infectious Norovirus” (KIM LABORATORIES, INC., priority 2009, published 2011)
